Key:
[1] = Displacement of [3H]progesterone from sigma-1 opioid receptor in porcine liver microsome membranes; type: microsomes, Sus scrofa
Homo sapiens [2] = species: Homo sapiens; test: Selectivity ratio of IC50 for sigma-1 opioid receptor (unknown origin) to IC50 for sigma-2 opioid receptor (unknown origin)
[3] = Binding affinity to sigma-2 opioid receptor (unknown origin); parameters: species or system Homo sapiens
[4] = biological target: Sigma non-opioid intracellular receptor 1 (Homo sapiens, UniProt Q99720); test: Binding affinity to sigma-1 opioid receptor (unknown origin)
Sigma non-opioid intracellular receptor 1 (Homo sapiens, UniProt Q99720), sequence (Q99720 whole entry): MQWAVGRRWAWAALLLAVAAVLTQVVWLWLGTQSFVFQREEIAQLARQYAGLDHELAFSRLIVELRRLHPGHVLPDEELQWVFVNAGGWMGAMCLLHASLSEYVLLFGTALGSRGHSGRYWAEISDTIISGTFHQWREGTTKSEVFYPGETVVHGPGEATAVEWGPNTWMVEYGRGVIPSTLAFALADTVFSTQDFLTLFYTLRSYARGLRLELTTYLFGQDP

Homo sapiens [5] = species: Homo sapiens; test: Selectivity ratio of Ki for sigma-1 opioid receptor (unknown origin) to Ki for sigma-2 opioid receptor (unknown origin)
TRAMP = test: Selectivity ratio of Ki for sigma-1 opioid receptor in TRAMP cell membranes to Ki for sigma-2 opioid receptor in TRAMP cell membranes; type: cell-based; settings: Mus musculus
[6] = Displacement of [3H]di-o-tolylguanidine from sigma-2 opioid receptor in rat brain; type: tissue-based
Cavia porcellus [7] = species: Cavia porcellus; test: Selectivity ratio of Ki for guinea pig brain membrane sigma-1 opioid receptor to Ki for guinea pig brain membrane sigma-2 opioid receptor
[8] = Displacement of [3H]-DTG from sigma-2 opioid receptor in rat liver
[9] = Selectivity ratio of Ki for guinea pig brain sigma-1 opioid receptor to Ki for rat liver sigma-2 opioid receptor
[10] = Displacement of [3H]ditolylguanidine from sigma-2 opioid receptor in rat liver membranes by liquid scintillation spectrometric analysis; type: cell membranes, Membrane
[11] = Ratio of drug level in nuclear fraction to cytosolic fraction of human MCF7/ADR cells at 20 to 50 uM after 2 hrs by beta counting analysis; type: ADME, cell-based; settings: nci/adr-res
[12] = Ratio of drug level in nuclear fraction to cytosolic fraction of human SK-N-SH cells at 20 to 50 uM after 2 hrs by beta counting analysis; type: ADME, cell-based
[13] = Binding affinity to sigma-1 opioid receptor (unknown origin)
[14] = Lipophilicity, log P of the compound; type: physicochemical; settings: octanol/water
[15] = biological target: Sigma non-opioid intracellular receptor 1 (Cavia porcellus, UniProt Q60492); test: Binding affinity to guinea pig brain membrane sigma-1 opioid receptor by radioligand displacement assay
Sigma non-opioid intracellular receptor 1 (Cavia porcellus, UniProt Q60492), sequence (Q60492 whole entry): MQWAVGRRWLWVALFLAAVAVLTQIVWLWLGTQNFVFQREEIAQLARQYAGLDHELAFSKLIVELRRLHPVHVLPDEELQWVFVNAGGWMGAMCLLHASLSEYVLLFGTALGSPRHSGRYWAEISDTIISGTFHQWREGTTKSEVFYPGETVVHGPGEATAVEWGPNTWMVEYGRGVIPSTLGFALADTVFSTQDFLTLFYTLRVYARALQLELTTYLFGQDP

[16] = Binding affinity to guinea pig brain membrane sigma-2 opioid receptor by radioligand displacement assay; parameters: species or system Cavia porcellus
Cavia porcellus [17] = species: Cavia porcellus; test: Selectivity ratio of Ki for guinea pig hippocampus sigma-1 opioid receptor to Ki for guinea pig hippocampus sigma-2 opioid receptor
[18] = Binding affinity to guinea pig hippocampus sigma-2 opioid receptor; parameters: species or system Cavia porcellus

SMILES: CC(C)=CCN1CC[C@]2(C)c3cc(O)ccc3C[C@H]1[C@H]2C [(+)-PENTAZOCINE]
- Ki [1]: 1130 nM

SMILES: O=S(=O)(c1ccccc1)n1cc(CCCCN2CCC3(CC2)OCc2ccccc23)c2ccccc21
- Ratio IC50 (Homo sapiens [2]): 59
- Ki [3]: 0.17 nM
- Ki [4]: 10 nM

SMILES: CCC(Oc1ccc(Cl)cc1)C(=O)OC1CC2CCC(C1)N2C (racemic)
- Ratio Ki (Homo sapiens [5]): > 15
- Ki [3]: 67.5 nM
- Ki [4]: > 1000 nM

SMILES: COc1ccc(C)cc1NC(=O)OC1CC2CCCC(C1)N2Cc1ccc(N(C)C)cc1 (stereo not drawn)
- Ratio Ki (Homo sapiens [5]): 553
- Ki [3]: 2.6 nM
- Ki [4]: 1440 nM

SMILES: COc1cccc2c(CCCN3CCN(C4CCCCC4)CC3)cccc12
- Ratio Ki (TRAMP): 13

SMILES: CC[C@H]1C[C@@H]2C[C@H]3c4[nH]c5ccc(OC)cc5c4CCN(C2)[C@@H]13 [IBOGAINE]
- Ki [4]: 8550 nM

SMILES: CN1CC[C@@]2(c3cccc(O)c3)CC(=O)/C(=C/c3ccc(Cl)c(Cl)c3)[C@@H]1C2
- Ratio Ki (Homo sapiens [5]): 0.77
- Ki [3]: 35.3 nM
- Ki [4]: 27.3 nM

SMILES: CC(=O)c1ccc2c(c1)oc(=O)n2CCCCN1CCN(c2ccc(F)cc2)CC1
- Ki [6]: 7 nM

SMILES: COc1cc2c(cc1OC)CN(CCCCNC(=O)c1cc(Br)cc(OC)c1OC)CC2
- Ki [3]: 8.2 nM

SMILES: COC(=O)[C@@]1(c2ccccc2)C[C@H]1CN1C2CCC1CC(O)(c1ccc(Cl)cc1)C2 (stereo partly drawn)
- Ratio Ki (Cavia porcellus [7]): 20.6

SMILES: COc1cccc2c1CCC[C@H]2NC(=O)CN1CCN(C2CCCCC2)CC1
- Ki [8]: 10.1 nM
- Ratio Ki [9]: 2

SMILES: CN1CC[C@]2(c3cccc(O)c3)CC(=O)/C(=C/c3ccc(Cl)c(Cl)c3)[C@H]1C2
- Ratio Ki (Homo sapiens [5]): 555
- Ki [3]: 13.4 nM
- Ki [4]: 7440 nM

SMILES: Fc1ccccc1N1CCN(CCCn2ccc3ccccc32)CC1
- Ratio Ki (Homo sapiens [5]): 20
- Ki [3]: 75 nM
- Ki [4]: 1490 nM

SMILES: COc1cccc2c1CCC[C@@H]2NC(=O)CN1CCN(C2CCCCC2)CC1
- Ki [8]: 6 nM
- Ratio Ki [9]: 16

SMILES: CS(=O)(=O)n1cc(CCCCN2CCC3(CC2)OCc2ccccc23)c2ccccc21
- Ratio IC50 (Homo sapiens [2]): 26
- Ki [3]: 0.05 nM
- Ki [4]: 1.3 nM

SMILES: CC(=O)[C@H]1CC[C@H]2[C@@H]3CCC4=CC(=O)CC[C@]4(C)[C@H]3CC[C@]12C [PROGESTERONE]
- Kd [10]: 441 nM

SMILES: COc1cc2c(cc1OC)CN(CCNC(=O)c1cc(C)ccc1OC)CC2
- Ki [3]: 13.3 nM

SMILES: CN1CC[C@@]2(c3cccc(O)c3)CC(=O)/C(=C/c3cccc(O)c3)[C@@H]1C2
- Ratio Ki (Homo sapiens [5]): 0.07
- Ki [3]: 153 nM
- Ki [4]: 10.5 nM

SMILES: COc1cccc2c1CCCC2CCCN1CCN(C2CCCCC2)CC1 (racemic)
- Ratio [11]: 5
- Ratio Ki [9]: 0.56
- Ratio [12]: 5

SMILES: COc1cc(Br)cc(C(=O)NCCCCN2CCN(c3cccc(Cl)c3Cl)CC2)c1OC
- Ki [3]: 75 nM
- Ki [13]: 809 nM
- logP [14]: 5.76

SMILES: COc1cccc2c1CCCC2CCCC1CCN(C2CCCCC2)CC1 (stereo not drawn)
- Ki [8]: 26.6 nM
- Ratio Ki [9]: 29

SMILES: COc1cccc2c1CCCC2CCCN1CCC(C2CCCCC2)CC1 (stereo not drawn)
- Ki [8]: 18.8 nM
- Ratio Ki [9]: 7.6

SMILES: COc1ccc(C(=O)NCCCCN2CCc3ccc([N+](=O)[O-])cc3C2)c(OC)c1OC
- Ratio Ki (Homo sapiens [5]): 385
- Ki [3]: 26.8 nM
- Ki [4]: 10300 nM

SMILES: COc1cc2c(cc1OC)CN(CCNC(=O)c1cc(Br)ccc1OC)CC2
- Ki [3]: 12.4 nM
- Ki [13]: 5480 nM

SMILES: CC[C@H]1C[C@H]2C[C@H]3c4[nH]c5ccc(OC)cc5c4CCN(C2)[C@@H]13 [IBOGAINE]
- Ratio Ki (Homo sapiens [5]): 43
- Ki [3]: 201 nM

SMILES: Fc1ccc(C2=CC3CCC(C2)N3CCCCc2cn(-c3ccc(F)cc3)c3ccccc23)cc1 (stereo not drawn)
- Ratio IC50 (Homo sapiens [2]): 480
- Ki [3]: 2.5 nM
- Ki [4]: 1200 nM

SMILES: OC12C3C4CC5C6C4C1C6C(C53)N2Cc1ccc(F)cc1 (stereo not drawn)
- Ki [15]: 152 nM
- Ki [16]: 20 nM
- Ratio Ki (Cavia porcellus [7]): 7.6

SMILES: CN1CC[C@]2(c3cccc(O)c3)CC(=O)/C(=C/c3cccc(O)c3)[C@H]1C2
- Ratio Ki (Homo sapiens [5]): 185
- Ki [3]: 16.5 nM
- Ki [4]: 3060 nM

SMILES: COc1ccc(CN2C3CCC2CC3)cc1OC
- Ki [3]: 43 nM

SMILES: COc1cc2c(cc1OC)CN(CCNC(=O)c1cc(Br)cc(OC)c1OC)CC2
- Ratio Ki (Homo sapiens [5]): 179
- Ki [3]: 16.4 nM
- Ki [13]: 2930 nM

SMILES: CCn1c(=O)n(C(=O)NC2CC3CCC(C2)N3C)c2ccccc21 (stereo not drawn)
- Ratio Ki (Cavia porcellus [17]): 197
- Ki [18]: 32 nM

— ChEMBL document CHEMBL3232965, “The σ2 receptor: a novel protein for the imaging and treatment of cancer” (J Med Chem, 2013)
